Test results reported in US20040236084A1, “2-Aminopyridine substituted heterocycles” (Pfizer Inc, priority 2003, published 2004).
Counter-ions that a name gives are not always drawn.

Key:
Cdk2/cyclin A = Cdk2/cyclin A (Homo sapiens, UniProt P24941); experiment: Assay for inhibition of Cdk2/Cyclin A (32P incorporation into retinoblastoma protein, filter plate); format: biochemical
Method: (§1) To determine the inhibitory potency and selectivity of compounds of the present invention against Cdk4 and related kinases, compounds were evaluated in standard assays routinely used to measure inhibition of cyclin-dependent kinase enzymes and other protein kinases (see for example D. W. Fry et al., J. Biol. Chem. 2001, 276, 16617-16623). The assays were carried out as described below.
Assay for Inhibition of Cdk2/Cyclin A
Cdk2 enzyme assays for IC50 determinations and kinetic evaluation are performed as follows. 96-well filter plates (Millipore MADVN6550) are used. The final assay volume is 0.1 mL containing buffer A (20 mM TRIS (tris[hydroxymethyl]aminomethane) (pH 7.4), 50 mM NaCl, 1 mM dithiothreitol, 10 mM MgCl2), […] containing 0.25 μCi [^32P]ATP, 20 ng Cdk2/cyclin A, 1 μg retinoblastoma protein, and the test compound at appropriate dilutions in buffer A (Buffer A alone without added test compound was employed as a control for no inhibition. Buffer A containing excess EDTA was used to determine the level of background ^32P in the absence of enzyme activity). All components except the ATP are added to the wells, and the plate is placed on a plate mixer for 2 minutes. The reaction is initiated by addition of [^32P]ATP, and the plate is incubated at 25° C. for 15 minutes. The reaction is terminated by addition of 0.1 mL 20% TCA. The plate is kept at 4° C. for at least 1 hour to allow the substrate to precipitate. The wells are then washed five times with 0.2 mL 10% TCA, and ^32P incorporation is determined with a beta plate counter (Wallac Inc., Gaithersburg, Md.). The IC50 of the test compound was determined using the median effect method (Chou, T-C and Talalay, P. Applications of the median effect principle for the assessment of low-dose risk of carcinogens and for the quantitation of synergism and antagonism of chemotherapeutic agents. In: New Avenues in Developmental Cancer Chemotherapy (Eds. Harrap, K. T. and Connors, T. A.), pp. 37-64. Academic Press, New York, 1987).

Cdk4/Cyclin D = Cdk4/Cyclin D (Homo sapiens, UniProt P11802); experiment: Assay for inhibition of Cdk4/Cyclin D (32P incorporation into retinoblastoma protein, filter plate); format: biochemical
Method: as §1
Assay for Inhibition of Cdk4/Cyclin D
The Cdk4 enzyme assay for IC50 determination and kinetic evaluation is performed as follows. 96-well filter plates (Millipore MADVN6550) are used. The total volume is 0.1 mL containing buffer A (20 mM TRIS (tris[hydroxymethyl]aminomethane) (pH 7.4), 50 mM NaCl, 1 mM dithiothreitol, 10 mM MgCl2), 25 [[…] ATP containing 0.25 μCi [^32P]ATP, 20 ng Cdk4, 1 μg retinoblastoma protein and the test compound at appropriate dilutions in buffer A. Buffer A alone without added test compound was employed as a control for no inhibition. Buffer A containing excess EDTA was used to determine the level of background ^32P in the absence of enzyme activity. All components except the ATP are added to the wells, and the plate is placed on a plate mixer for 2 minutes. The reaction is started by adding [^32P]ATP, and the plate is incubated at 25° C. for 15 minutes. The reaction is terminated by addition of 0.1 mL 20% trichloroacetic acid (TCA). The plate is kept at 4° C. for at least 1 hour to allow the substrate to precipitate. The wells are then washed five times with 0.2 mL 10% TCA, and ^32P incorporation is determined with a beta plate counter (Wallac Inc., Gaithersburg, Md.). The IC50 of the test compound was determined using the median effect method (Chou, T-C and Talalay, P. Applications of the median effect principle for the assessment of low-dose risk of carcinogens and for the quantitation of synergism and antagonism of chemotherapeutic agents. In: New Avenues in Developmental Cancer Chemotherapy (Eds. Harrap, K. T. and Connors, T. A.), pp. 37-64. Academic Press, New York, 1987).

neointima formation = details: in rats; cited from earlier work

Sequence of Cdk4/Cyclin D (P11802 whole entry, species assumed): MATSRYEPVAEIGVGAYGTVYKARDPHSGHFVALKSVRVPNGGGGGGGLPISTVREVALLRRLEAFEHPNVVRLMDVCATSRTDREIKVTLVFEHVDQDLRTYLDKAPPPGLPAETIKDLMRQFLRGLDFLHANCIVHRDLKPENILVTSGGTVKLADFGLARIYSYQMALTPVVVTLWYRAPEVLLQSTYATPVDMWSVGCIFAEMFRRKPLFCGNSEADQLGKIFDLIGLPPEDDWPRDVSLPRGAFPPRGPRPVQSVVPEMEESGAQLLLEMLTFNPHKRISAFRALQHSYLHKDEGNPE
Sequence of Cdk4/Cyclin D (P24385 whole entry partner, species assumed): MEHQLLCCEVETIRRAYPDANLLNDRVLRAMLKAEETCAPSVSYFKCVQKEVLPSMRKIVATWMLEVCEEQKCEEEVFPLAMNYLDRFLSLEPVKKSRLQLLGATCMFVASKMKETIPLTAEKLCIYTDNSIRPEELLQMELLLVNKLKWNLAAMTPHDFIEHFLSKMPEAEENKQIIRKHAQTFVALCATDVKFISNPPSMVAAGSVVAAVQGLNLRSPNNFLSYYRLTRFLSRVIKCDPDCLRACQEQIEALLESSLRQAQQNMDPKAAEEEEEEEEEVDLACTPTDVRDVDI

O=C1N(Cc2ccccc2)Cc2cnc(Nc3ccc(N4CCCCC4)cn3)nc2N1C1CCCC1 [Example 15, 3-Benzyl-1-cyclopentyl-7-(3,4,5,6-tetrahydro-2H-[1,3′]bipyridinyl-6′-ylamino)-3,4-dihydro-1H-pyrimido[4,5-d]pyrimidin-2-one]
melting point: 194 to 196 °C

CCc1nc2cnc(Nc3ccc(N4CCNCC4)cn3)nc2n(C2CCCC2)c1=O [Example 10, 8-Cyclopentyl-6-ethyl-2-(5-piperazin-1-yl-pyridin-2-ylamino)8H-pteridin-7-one]
IC50 (Cdk2/cyclin A): > 5000 nM | melting point: 203 to 208 °C (dec.) | IC50 (Cdk4/Cyclin D): 335 nM

Cc1nc2cnc(Nc3ccc(N4CCNCC4)cn3)nc2n(C2CCCC2)c1=O [Example 8, 8-Cyclopentyl-6-methyl-2-(5-piperazin-1-yl-pyridin-2-ylamino)-8H-pteridin-7-one]
IC50 (Cdk2/cyclin A): > 5000 nM | melting point: 221 to 223 °C | IC50 (Cdk4/Cyclin D): 510 nM

CCOC(=O)c1cnc(Nc2ccc(N3CCNCC3)cn2)nc1NC1CCCC1 (as salt: hydrochloride)
melting point: 180 °C

Cc1nc2cnc(Nc3ccc(N4CCNCC4)cc3)nc2n(C2CCCC2)c1=O [8′, reference compound]
IC50 (Cdk2/cyclin A): 913 nM | IC50 (Cdk4/Cyclin D): 14 nM

COc1ccc2cnc(Nc3ccc(N4CCNCC4)cn3)nc2c1C1CCCC1 [Example 13, (8-Cyclopentyl-7-methoxy-quinazolin-2-yl)-(5-piperazin-1-yl-pyridin-2-yl)-amine]
IC50 (Cdk2/cyclin A): 1700 nM | melting point: > 200 °C | IC50 (Cdk4/Cyclin D): 4 nM

CCc1nc2cnc(Nc3ccc(N4CCNCC4)cc3)nc2n(C2CCCC2)c1=O [10′, reference compound]
IC50 (Cdk2/cyclin A): 4120 nM | IC50 (Cdk4/Cyclin D): 28 nM

CNc1nc(Nc2ccc(N3CCOCC3)cc2)nc(NC2CCCC2)n1 [Example 14D, N-Cyclopentyl-N′-methyl-N″-(4-morpholin-4-yl-phenyl)-[1,3,5]triazine-2,4,6-triamine]
melting point: 218 to 219 °C

COc1ccc(CNc2nc(N(CCO)CCO)nc3c2ncn3C(C)C)cc1 [CVT-313]
inhibition of neointima formation (neointima formation): greater than 80%

Clc1nc(Nc2ccc(N3CCOCC3)nc2)nc(NC2CCCC2)n1 [Example 14E, 6-Chloro-N-cyclopentyl-N′-(6-morpholin-4-yl-pyridin-3-yl)-[1,3,5]triazine-2,4-diamine]
melting point: 218 to 219 °C
